Laboratory results taken from patent publication USRE39088E1, “Amide compounds and use of the same” (Japan Tobacco, Inc., priority 1995, dated 2006).
Counter-ions that a name gives are not always drawn. Like-named read-outs stand apart in the source and are kept apart here.

Experiments:
[1] = test system: IL-8; test: Suppression of production of inflammatory cytokines: IL-8 in LPS-stimulated human peripheral blood monocytes (ELISA); assay type: cell-based; conditions: supernatant 20 hours after LPS
Experimental: (§1) Suppression of production of inflammatory cytokines
(§2) Thirty ml of human peripheral blood added with heparin was placed on Ficol-Paque (15 ml), and centrifuged at 400 G for 40 minutes at room temperature. The obtained monocyte fraction layers were collected and washed three times with E-MEM medium. The cells were adjusted to a final concentration of 0.5×10^5 cells/800 μl with RPMI-1640 medium containing 5% bovine fetal serum (2-mercaptoethanol), and seeded in a 24 well plant by 800 μl. A test sample (100 μl) was added and 100 μl of lipopolysarcharide (LPS, 100 μg/ml) was added one hour later. The supernatant was taken at 20 hours after stimulation with LPS, and amounts of various cytokines were determined using an ELISA kit.

[2] = test system: IL-1; test: Suppression of production of inflammatory cytokines: IL-1 in LPS-stimulated human peripheral blood monocytes (ELISA); assay type: cell-based; conditions: Monocyte, read-out: IC50 (μM) IL-1β
Experimental: as §1, §2

[3] = test system: TNF-α; test: Suppression of production of inflammatory cytokines: TNF-α in LPS-stimulated human peripheral blood monocytes (ELISA); assay type: cell-based; conditions: Monocyte, read-out: IC50 (μM) TNF
Experimental: as §1, §2

[4] = test system: TNF α in the peritoneal fluid; test: Suppression of LPS-induced peritonitis; assay type: in vivo, male Balb/c mice; conditions: test sample 50 mg/kg from the tail vein 60 minutes before LPS i.p.; TNF α in peritoneal fluid one hour after LPS, relative to control group; ** = p<0.01 from control
Experimental: Suppression of LPS-induced peritonitis
LPS (30 μg/ml, 1 ml) prepared with physiological saline containing 0.5% CMC (carboxymethylcellulose) was infra-peritoneally injected into male Balb/c mice to induce-peritonitis. One hour later, the mice were killed with carbon dioxide, and the amount of TNF α in the peritoneal fluid was determined using an ELISA kit.
The test sample (50 mg/kg) was administered from the tail vein at 60 minutes before LPS injection, and the degree of suppression was investigated. The suppression by the test sample is shown in the ratio relative to the suppression in the control group.
Suppression (%)=100-(TNR amount of group treated with test sample/TNF amount of control group)×100
The results are shown in Table 89 wherein ** means the presence of significant difference by p<0.01 from the control group.

[5] = test system: ALT in blood; test: Suppression of LPS/D-galactosamine-induced hepatitis; assay type: in vivo; conditions: tail vein, 10 minutes before LPS/D-galactosamine, ALT in blood at 6 hours, male C57BL/6 mice; for inhibition in vivo at 5 mg/kg / inhibition in vivo at 10 mg/kg: Mus musculus, iv
Experimental: Suppression of LPS/D-galactosamine-induced hepatitis
LPS (5 μg/kg)D-galactosamine (500 mg/kg) in physiological saline was intraperitoneally injected to male C57BL/6 mice to induce hepatitis. Six hours after the injection of LPS/D-galactosamine in physiological saline, blood was taken from the mice orbital venosus plexus. Plasma was separated from the blood, and ALT in blood was determined by a biochemical analyzer. The test sample was administered from the tail vein at 10 minutes before the injection of LPS/D-galactosamine in physiological saline, and the degree of suppression was investigated. The suppression by the test sample is shown in the ratio relative to the suppression in the control group.
Suppression (%)=100-(ALT amount of group treated with test sample/ALT amount of control group)×100

[6] = LPS-stimulated human peripheral blood monocytes, supernatant 20 hours after LPS, ELISA

Row | SMILES | inhibition in vivo at 10 mg/kg [5] | IC50 ([1]; Homo sapiens, Monocyte, 20 h) | also measured
1 | CNCCCCOc1c(Cl)cc(C(=O)N[C@@H](Cc2ccccc2)C(=O)OC)c(O)c1Cl.Cl [Example 1, N-[3,5-Dichloro-2-hydroxy-4-(4-methylaminobutoxy)benzoyl]-L-phenylalanine methyl ester hydrochloride] | 78% | – | IC50 ([1]; Monocyte): 0.009 µM; IC50 ([2]; Homo sapiens, 20 h): 0.002 µM; IC50 ([3]; Homo sapiens, 20 h): 0.008 µM; Inhibition (%) [4]: 64** %; inhibition in vivo at 5 mg/kg ([5]; dose 5 mg/kg): 88%
2 | CCOC(=O)[C@H](Cc1ccccc1)NC(=O)c1cc(Cl)c(OCCN2CCN(C)CC2)c(Cl)c1O [Example 2, N-{3,5-Dichloro-2-hydroxy-4-[2-(4-methylpiperazin-1-yl)ethoxy]-benzoyl}-L-phenylalanine ethyl ester dihydrochloride] | 65% | 0.01 µM | –
3 | COC(=O)[C@H](Cc1ccccc1)NC(=O)c1ccc(OCCCN)cc1O [Example 3] | – | > 30 µM | IC50 [2, 6]: > 30 µM; IC50 [3, 6]: 14 µM
4 | COC(=O)[C@H](Cc1ccccc1)NC(=O)c1ccc(OCCCCN)cc1O.Cl [Example 4] | 42% | 2 µM | IC50 [2, 6]: 3 µM; IC50 [3, 6]: 2 µM; Inhibition (%) [4]: 38** %
5 | COC(=O)[C@H](Cc1ccccc1)NC(=O)c1ccc(OCCCCCN)cc1O [Example 5] | – | 6 µM | IC50 [2, 6]: 75 µM; IC50 [3, 6]: 6 µM
6 | COC(=O)[C@H](Cc1ccccc1)NC(=O)c1ccc(OCCCCCCN)cc1O [Example 6] | – | 14 µM | IC50 [2, 6]: 14 µM; IC50 [3, 6]: 6 µM
7 | CNCCCCOc1cc(O)c(C(=O)N[C@@H](Cc2ccccc2)C(=O)OC)cc1Cl.Cl [Example 9] | – | < 0.3 µM | Inhibition (%) [4]: 21%
8 | CNCCCCOc1c(Cl)cc(C(=O)N[C@@H](Cc2ccccc2)C(=O)OC)c(O)c1C [Example 10] | 77% | 0.6 µM | –
9 | CCOC(=O)C(Cc1ccccc1)NC(=O)c1cc(Cl)c(OCCCCN)c(Cl)c1O.Cl (stereo not drawn) [Example 19] | – | < 0.01 µM | Inhibition (%) [4]: 32** %
10 | CCOC(=O)C(Cc1ccccc1)NC(=O)c1cc(Cl)c(OCCCCNC)c(Cl)c1O (stereo not drawn) [Example 22] | 51% | – | IC50 [1]: < 0.01 µM
11 | CC(C)OC(=O)[C@H](Cc1ccccc1)NC(=O)c1cc(Cl)c(OCCCCN)c(Cl)c1O [Example 27] | 67% | < 0.01 µM | –
12 | CCCCCCOC(=O)[C@H](Cc1ccccc1)NC(=O)c1cc(Cl)c(OCCCCNC)c(Cl)c1O [Example 31] | – | < 0.01 µM | inhibition in vivo at 5 mg/kg ([5]; dose 5 mg/kg): 87%
13 | COC(=O)[C@H](Cc1ccccc1)NC(=O)c1cc(Cl)c(OCCCCNC(=N)N)c(Cl)c1O [Example 32] | 78% | 0.5 µM | –
14 | COC(=O)[C@H](Cc1ccccc1)NC(=O)c1cc(Cl)c(OCCOCCN(C)C)c(Cl)c1O [Example 37] | 80% | 0.3 µM | –
15 | NCCCCOc1c(Cl)cc(C(=O)N[C@@H](Cc2ccccc2)C(=O)OC2CCCCC2)c(O)c1Cl [Example 45] | 30% | 0.004 µM | IC50 [2, 6]: 0.0008 µM; IC50 [3, 6]: 0.004 µM
16 | CNCCCCOc1c(Cl)cc(C(=O)N[C@@H](Cc2ccccc2)C(=O)OC2CCCCC2)c(O)c1Cl [Example 46] | 57% | < 0.01 µM | –
17 | CNCCCCOc1c(Cl)cc(C(=O)N[C@@H](Cc2ccccc2)C(=O)NCC(=O)O)c(O)c1Cl [Example 50] | 15% | 28 µM | –
18 | CCSC(=O)C(Cc1ccccc1)NC(=O)c1cc(Cl)c(OCCCCN)c(Cl)c1O.Cl (stereo not drawn) [Example 52] | – | < 0.01 µM | Inhibition (%) [4]: 31** %
19 | COC(=O)[C@H](Cc1ccccc1)NC(=O)c1cc(Cl)c(OCCN2CCNC(C)C2)c(Cl)c1O (stereo partly drawn) [Example 60] | 42% | 0.03 µM | –
20 | CNCCCCOc1c(Cl)cc(C(=O)N[C@@H](Cc2ccccc2)C(=O)OC)c(OC(=O)c2ccccc2)c1Cl [Example 105, N-[2-Benzoyloxy-3,5-dichloro-4-(4-methylaminobutoxy)benzoyl]-L-phenylalanine methyl ester hydrochloride] | 40% | 0.005 µM | IC50 [2, 6]: 0.001 µM; IC50 [3, 6]: 0.004 µM
21 | CCOC(=O)C(Cc1ccccc1)NC(=O)c1cc(Cl)c(OCCCCNC)c(Cl)c1OC(C)=O (stereo not drawn) [Example 117] | 54% | < 0.01 µM | –
22 | CNCCCCOc1c(Cl)cc(C(=O)N[C@@H](Cc2ccccc2)C(=O)O)c(O)c1Cl [Example 126, N-[3,5-Dichloro-2-hydroxy-4-(4-methylaminobutoxy)benzoyl]-L-phenylalanine hydrochloride] | 27% | 0.8 µM | –
23 | NCCCCOc1c(Cl)cc(C(=O)N[C@@H](Cc2ccccc2)C(=O)O)c(O)c1Cl [Example 127] | – | 0.2 µM | inhibition in vivo at 5 mg/kg ([5]; dose 5 mg/kg): 82%
24 | Cl.NCCCCOc1c(Cl)cc(C(=O)N[C@@H](Cc2ccccc2)C(=O)Nc2ccccc2)c(O)c1Cl [Example 138, N-[3,5-Dichloro-2-hydroxy-4-(4-aminobutoxy)benzoyl]-L-phenyl-alanylaminobenzene hydrochloride] | – | – | IC50 [1]: 1 µM; Inhibition (%) ([5]; dose 5 mg/kg): 22%
25 | CCOC(=O)[C@H](Cc1ccccc1)NC(=O)c1ccc(-c2noc(CCCCNC)n2)cc1O.Cl [Example 148, (2S)-3-Phenyl-2-[4-[5-(4-methylaminobutyl)-1,2,4-oxadizol-3-yl]-2-hydroxybenzoylamino]propionic acid ethyl ester hydrochloride] | – | – | IC50 [1]: 4 µM; Inhibition (%) [4]: 19%
26 | CCOC(=O)[C@H](Cc1ccccc1)NC(=O)c1cc(Cl)c(OC(=O)CCN2CCNCC2)c(Cl)c1O [Example 155, N-[3,5-Dichloro-2-hydroxy-4-(3-piperazinylpropionyloxy)benzoyl]-L-phenylalanine ethyl ester dihydrochloride] | – | – | IC50 ([1]; Monocyte): 0.2 µM; Inhibition (%) [4]: 28** %
